According to patent US20090047742A1 (priority 2005, published 2009):

Key:
[1] = tested on: T-Rex-293 cells; experiment: FACS analysis of propidium iodide labeling (sub-G1 peak); type: cell-based, human; conditions: T-Rex-293 (mazF/pcDNA3), 72 hours of Tet induction
Protocol: T-Rex-293 (mazF/pcDNA3) cells and T-Rex-293 (mazF/mazE) cells treated with tetracycline for 0, 24, 48 and 72 hr were harvested by trypsinization, pelleted by centrifugation and resuspended in PBS. The cells were fixed with ice-cold 70% ethanol for 30 min and stained with propidium iodide (10 μg/ml) and RNase A (100 μg/ml) overnight. The cells were analyzed on a Becton Dickinson FACSCalibur system (San Jose, Calif.).

[2] = tested on: iBMK cells; experiment: β-galactosidase assay, viability of iBMK cells co-expressing LacZ; type: cell-based, mouse
Protocol: β-galactosidase assays to determine the viability of iBMK cells co-expressing LacZ and MazF were performed as previously described (Han, J., Sabbatini, P., and White, E. Mol. Cell. Biol. 16: 5857-5864 (1996)). W2, D3, X2 and K1 co-transfected with pcDNA6/His/LacZ and pcDNA4/TO/mazF or pcDNA3 for 48 hr were fixed in 1% glutaraldehyde and then stained with 0.2% X-gal solution at 37° C. for 24 hr. β-Galactosidase positive blue cells and the total number of cells (approximately 200 cells) were independently counted on a 6-cm diameter dish.

[3] = tested on: T-Rex-293 cells; experiment: 35S-methionine metabolic labeling (protein synthesis); type: cell-based, human
Protocol: T-Rex-293 (mazF/pcDNA3) and T-Rex-293 (mazF/mazE) cells were incubated for 0, 24 and 48 hr in tetracycline-containing complete DMEM followed by incubation for 1 hr in fresh methionine-free DMEM containing 10 μCi/ml ^35S-methionine. The cells then were washed with PBS twice and lysed in 2× Laemmli buffer. The cell lysate was subjected to SDS-PAGE followed by autoradiography and coomassie blue stain. Signal intensity was measured by Phosphoimager STORM 860 (Molecular Dynamics, Sunnyvale, Calif.).

[4] = tested on: 28S and 18S ribosomal RNA; experiment: ribosomal RNA by agarose-formaldehyde gel electrophoresis and ethidium bromide staining; type: cell-based, human; conditions: MazF expressed for 72 hours, T-Rex-293 cells
Protocol: Total RNA from Tet-treated or -untreated T-Rex-293 cells at the indicated time points was probed with ^32P-labeled human GAPDH and β-actin cDNA. 28S and 18S ribosomal RNAs were visualized by agarose-formaldehyde gel electrophoresis followed by ethidium bromide staining. […] Human GAPDH and β-actin mRNA levels were quantified by real-time RT-PCR. Relative amounts of mRNA were calculated from the fluorescence signal in the 24-, 48- and 72-hours samples as compared with the corresponding 0-hour sample.

[5] = tested on: activated caspase-3 in iBMK cells; experiment: immunofluorescence of activated caspase-3 in iBMK cells; type: cell-based, mouse
Protocol: W2, D3, X2 and K1 cells co-transfected by electroporation with a combination of plasmids pcDNA6/His/lacZ with pcDNA4/TO/mazF or pcDNA3 were grown on glass coverslips for 24 hr and fixed in 100% methanol for 10 min at −20° C. After blocking in 1% BSA-PBS for 1 hr at 37° C., cells on coverslips were incubated with anti-active caspase-3 rabbit polyclonal antibody and anti-Xpress mouse monoclonal antibody (Invitrogen, Carlsbad, Calif.) for 1 hr at 37° C. followed by incubation with rhodamine-conjugated anti-rabbit IgG and FITC-conjugated anti-mouse IgG antibody for 1 hr at 37° C. Staining was visualized by a Nikon FXA microscope equipped with epifluorescence optics (Nikon Inc., Garden City, N.Y.). The percentage of cells positive for active caspase-3 was determined by scoring 50-100 cells on each coverslip.

[6] = tested on: BCL-2 family proteins; experiment: Western blot of BCL-2 family proteins in T-Rex-293 lysates; type: cell-based, human
Protocol: Western blot analysis and immunofluorescence were performed as previously described (Perez, D., and White, E. J. Cell Biol. 141: 1255-1266 (1998); Perez, D., and White, E. Mol. Cell 6: 53-63 (2000)). The term “Western blot” refers to a method for identifying proteins in a complex mixture; proteins are separated electrophoretically in a gel medium; transferred from the gel to a protein binding sheet or membrane; and the sheet or membrane containing the separated proteins exposed to specific antibodies which bind to, locate, and enable visualization of protein(s) of interest. T-Rex-293 (mazF/pcDNA3) and T-Rex-293 (mazF/mazE) cells were harvested at 0, 24, 48 and 72 hr post-treatment with tetracycline or staurosporine by scraping and centrifugation. All cell pellets were lysed in 2× Laemmli buffer. Cell lysates were subjected to electrophoresis on a 15% SDS-PAGE gel and then transferred onto an Immobilon-P membrane (Millipore, Bedford, Mass.). […]

MazF: E. coli toxin; sequence specific endoribonuclease (mRNA interferase) cleaving single-stranded RNAs at ACA sequences; expressed from plasmid pcDNA4/TO/mazF
sub-G1 peak [1]: 65.9% | β-galactosidase expression ([2]; D3 (bax−/− bak−/−) iBMK cells expressing MazF): little effect | response to MazF (β-galactosidase assay) ([2]; K1 (bak−/−) iBMK cells): preferentially resistant | β-galactosidase positive cells ([2]; W2 iBMK cells transiently co-expressing LacZ and MazF, 48 hours post-transfection): significant decrease | number of β-galactosidase positive cells ([2]; X2 (bax−/−) iBMK cells expressing MazF): significantly decreased | response to MazF-induced cell death (β-galactosidase assay) ([2]; nbk/bik−/− iBMK cells): preferentially resistant | number of β-galactosidase positive cells ([2]; puma−/−, bim−/−, noxa−/− iBMK cells transiently expressing MazF): significantly decreased | total protein levels (Coomassie blue) ([3]; MazF expressing T-Rex-293 cells, over the 48 hour induction period): remain constant | protein synthesis (35S-methionine incorporation) ([3]; T-Rex-293 (mazF/pcDNA3), 24 hours post induction of MazF): strikingly inhibited | levels of 28S and 18S ribosomal RNA [4]: did not change | cells with activated caspase-3 ([5]; D3 and K1 cells transiently expressing MazF): < 0.1% | active-caspase-3 positive cells ([5]; W2 cells transiently expressing MazF): 58.1% | active-caspase-3 positive cells ([5]; X2 cells transiently expressing MazF): 47.2% | levels of BCL-2 family proteins (Western blot) ([6]; T-Rex-293, MazF induction 0-72 hours): remained unchanged | truncated BID (tBID) (Western blot) ([6]; T-Rex-293, during MazF-induced apoptosis): undetectable
